Measured values as given in PubChem BioAssay AID977605 (Broad Institute, 2014).
Activity calls are given as the source filed them.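 The calls were made as follows: active = fitted curve reaches 40% activation below the top valid tested dose, in every test run; inconclusive = test runs disagree on the call; inactive = the rest, including effects opposite to the expected direction.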

Experiment: E-selectin inducers in HUVECs, dose response, imaging, HUVEC, cherry-picked samples (AID 977605);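 also: signal is the share of imaged cells scored positive for E-selectin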
Conditions: HUVEC E-selectin immunostaining, at 16 µM (top of the series), percent of TNF-alpha response over vehicle

SMILES | activation
C[C@@H]1CN([C@H](C)CO)C(=O)c2cccc(NC(=O)c3ccncc3)c2O[C@@H]1CN(C)Cc1ccc(C(=O)Nc2ccccc2N)cc1 | 4.83% (inactive)

Same assay, conditions: HUVEC E-selectin immunostaining, at 18 µM (top of the series), percent of TNF-alpha response over vehicle

SMILES | activation
C[C@H](CO)N1C[C@H](C)[C@H](CN(C)C(=O)Nc2ccc3c(c2)OCO3)Oc2ccc(NC(=O)CCCCCC(=O)Nc3ccccc3N)cc2CC1=O | 0.255% (inactive)

Same assay, conditions: HUVEC E-selectin immunostaining, at 19.5 µM (top of the series), percent of TNF-alpha response over vehicle

SMILES | activation
COc1ccc(CN(C)C[C@@H]2Oc3ccc(NC(=O)Nc4ccc(F)cc4)cc3CC(=O)N([C@@H](C)CO)C[C@@H]2C)cc1 | 0.025% (inactive)
C[C@H]1CN([C@@H](C)CO)C(=O)c2cccc(NS(=O)(=O)c3ccc(F)cc3)c2O[C@H]1CN(C)S(=O)(=O)c1cccs1 | -0.103% (inactive)
C[C@@H]1CN([C@H](C)CO)C(=O)c2cc(NS(C)(=O)=O)ccc2O[C@@H]1CN(C)C(=O)Nc1ccccc1 | -0.094% (inactive)
C[C@@H]1CN([C@H](C)CO)C(=O)c2cc(NC(=O)Nc3ccc4c(c3)OCO4)ccc2O[C@H]1CN(C)S(=O)(=O)c1ccc(F)cc1 | -0.11% (inactive)
Cc1noc(C)c1NC(=O)Nc1ccc2c(c1)CC(=O)N([C@@H](C)CO)C[C@H](C)[C@@H](CN(C)S(=O)(=O)c1ccccc1)O2 | -0.1% (inactive)
COc1ccccc1CC(Cc1nc2ccccc2[nH]1)c1nc2ccccc2[nH]1 (configuration not stated) | 0.165% (inactive)
Cc1cc(NC(=O)c2ccccc2F)n(C(C)(C)C)n1 | 0.21% (inactive)
COc1ccc(S(=O)(=O)Nc2ccc3c(c2)C(=O)N([C@@H](C)CO)C[C@H](C)[C@@H](CN(C)Cc2ccc(Cl)c(Cl)c2)O3)cc1 | -0.097% (inactive)
Cc1cc(C(=O)Nc2ccc(C)c(C)c2)n(-c2ccccc2)n1 | 0.076% (inactive)
C[C@@H]1CN([C@H](C)CO)C(=O)c2cccc(NS(C)(=O)=O)c2O[C@@H]1CN(C)Cc1ccncc1 | -0.083% (inactive)
Cc1noc(C)c1S(=O)(=O)N(C)C[C@H]1Oc2ccc(NS(C)(=O)=O)cc2CC(=O)N([C@@H](C)CO)C[C@H]1C | 0.259% (inactive)
C[C@H](CO)N1C[C@H](C)[C@@H](CN(C)Cc2ccc(C(F)(F)F)cc2)Oc2ccc(NC(=O)CCC(F)(F)F)cc2C1=O | 0.441% (inactive)
C[C@@H]1CN([C@@H](C)CO)C(=O)Cc2cc(NC(=O)Nc3ccc(F)cc3)ccc2O[C@H]1CN(C)Cc1ccc(C(=O)O)cc1 | -0.089% (inactive)
CO[C@H]1CN(C)C(=O)c2cc(NC(=O)Nc3ccc(Cl)cc3)ccc2OC[C@H](C)NC[C@H]1C | 0.158% (inactive)
C[C@@H]1CN([C@@H](C)CO)C(=O)c2cc(NC(=O)Cc3ccccc3)ccc2O[C@@H]1CN(C)C(=O)Nc1cccc2ccccc12 | -0.101% (inactive)
C[C@@H]1CCCCO[C@@H](CN(C)C(=O)Cc2ccccc2)[C@@H](C)CN([C@H](C)CO)C(=O)c2cc(NS(=O)(=O)c3cccs3)ccc2O1 | 0.129% (inactive)
CCOC(=O)c1cccc(NC(=O)c2cc(C)nn2-c2ccccc2)c1 | 0.657% (inactive)
COc1ccc(OCCN2CCN(S(=O)(=O)c3ccccc3C(F)(F)F)CC2)cc1 | -0.023% (inactive)
O=C(Nc1cccc(C(F)(F)F)c1)c1cc[n+]([O-])cc1 | 0.066% (inactive)
C[C@H]1CN([C@@H](C)CO)C(=O)c2cc(NC(=O)Cn3cnnn3)ccc2O[C@H]1CN(C)S(=O)(=O)c1ccccc1 | -0.003% (inactive)

SMILES | activation
CS(=O)(=O)N1CCc2cc(S(=O)(=O)NCCNS(=O)(=O)c3ccc4c(c3)CCN4S(C)(=O)=O)ccc21 | 0.185% (inactive)
C[C@@H]1CN([C@H](C)CO)C(=O)Cc2cc(NS(=O)(=O)c3cccs3)ccc2O[C@@H]1CN(C)Cc1ccc(C(=O)Nc2ccccc2N)cc1 | 1.45% (inactive)
c1ccc(-c2ccccc2OCCOCCN2CCNCC2)cc1 | 0.084% (inactive)
CC(C)NC(=O)N(C)C[C@@H]1Oc2ccc(NC(=O)CCCN(C)C)cc2C(=O)N([C@@H](C)CO)C[C@H]1C | -0.112% (inactive)
CC(C)C(c1nnnn1C1CCCCC1)N1CCN(C(=O)c2ccco2)CC1 (configuration not stated) | -0.112% (inactive)
C[C@@H]1CN([C@@H](C)CO)C(=O)Cc2cc(NC(=O)Nc3ccc(F)cc3)ccc2O[C@@H]1CN(C)Cc1ccc(C(=O)O)cc1 | -0.134% (inactive)
C[C@@H]1CN([C@H](C)CO)S(=O)(=O)c2ccc(-c3ccccc3)cc2O[C@H]1CN(C)S(C)(=O)=O | -0.007% (inactive)
CCCC#Cc1ccc2c(c1)O[C@@H](CN(C)C(=O)c1ccncc1)[C@H](C)CN([C@@H](C)CO)S2(=O)=O | -0.24% (inactive)
CC(C)NC(=O)N(C)C[C@@H]1Oc2ccc(NC(=O)CCN3CCOCC3)cc2C(=O)N([C@H](C)CO)C[C@H]1C | -0.003% (inactive)
C[C@H]1CN([C@@H](C)CO)C(=O)Cc2cc(NC(=O)c3ccncc3)ccc2O[C@H]1CN(C)Cc1ccc(C(=O)Nc2ccccc2N)cc1 | 6.93% (inactive)
COc1ccc(NC(=O)NC2(C(=O)N3CCOCC3)CCCCC2)cc1 | 0.439% (inactive)
COc1ccc(S(=O)(=O)Nc2ccc3c(c2)CC(=O)N([C@H](C)CO)C[C@H](C)[C@H](CN(C)C(=O)NC2CCCCC2)O3)cc1 | -0.057% (inactive)
N#Cc1ccc(-c2csc(NC3=NCCCCC3)n2)cc1 | -0.002% (inactive)
Cc1noc(C)c1NC(=O)N(C)C[C@H]1Oc2ccc(NC(=O)c3ccncc3)cc2C(=O)N([C@H](C)CO)C[C@H]1C | 0.014% (inactive)
C[C@@H]1CN([C@@H](C)CO)C(=O)c2cc(NS(=O)(=O)c3cccs3)ccc2O[C@@H]1CN(C)C(=O)Nc1ccc2c(c1)OCO2 | -0.086% (inactive)
C[C@H](CO)N1C[C@H](C)[C@H](CN(C)Cc2ccc(C(F)(F)F)cc2)Oc2ccc(N(C)C)cc2CC1=O | 0.692% (inactive)
C[C@@H]1CN([C@@H](C)CO)C(=O)Cc2cc(NC(=O)Nc3ccc(F)cc3)ccc2O[C@@H]1CN(C)S(=O)(=O)c1cn(C)cn1 | -0.041% (inactive)
C[C@H]1CN([C@@H](C)CO)C(=O)c2cccc(NC(=O)c3ccncc3)c2O[C@@H]1CN(C)Cc1ccc(C(=O)Nc2ccccc2N)cc1 | 0.014% (inactive)
N#Cc1cccnc1N1CCC(C(N)=O)CC1 | 0.067% (inactive)
CN(C1CCCCC1)S(=O)(=O)c1cn(C)c(=O)n(C)c1=O | -0.175% (inactive)

SMILES | activation
C[C@H]1CN([C@@H](C)CO)C(=O)c2cc(NC(=O)CCCN(C)C)ccc2O[C@H]1CN(C)Cc1ccc(C(F)(F)F)cc1 | -0.127% (inactive)
CN(CC(=O)Nc1ccc(Br)cc1)Cc1ccccc1 | 0.013% (inactive)
CC(C)NC(=O)N(C)C[C@H]1Oc2ccc(NC(=O)CCN3CCOCC3)cc2C(=O)N([C@@H](C)CO)C[C@H]1C | -0.017% (inactive)
C[C@H]1CN([C@@H](C)CO)C(=O)Cc2cc(NC(=O)Nc3cccc4ccccc34)ccc2O[C@@H]1CN(C)C(=O)Nc1ccc(C(F)(F)F)cc1 | 14.8% (inactive)
CCN(CC)C(=O)c1cn(-c2cccc(OC)c2)c(=O)c2ccccc12 | -0.108% (inactive)
O=C(NC1CCCC1)C(c1ccc(F)cc1)N(C(=O)c1csnn1)c1ccccc1 (configuration not stated) | 0.654% (inactive)
C[C@@H]1CN([C@@H](C)CO)C(=O)Cc2cc(NC(=O)c3ccncc3)ccc2O[C@@H]1CN(C)S(=O)(=O)c1cn(C)cn1 | -0.153% (inactive)
COc1ccccc1N(C(=O)c1snc(C(N)=O)c1N)C(C(=O)NCc1ccccc1)c1ccc(C)o1 (configuration not stated) | -0.235% (inactive)
CCn1c(SCC(=O)Nc2cccc(C)c2)nc2c(c1=O)SC(C)C2 (configuration not stated) | -0.269% (inactive)
C[C@H]1CN([C@@H](C)CO)C(=O)c2cccc(NC(=O)Nc3cccc4ccccc34)c2O[C@H]1CN(C)Cc1ccc(-c2ccccc2)cc1 | 0.067% (inactive)
CNS(=O)(=O)c1ccc(NC(=O)C2CC(=O)N(c3ccc(Cl)cc3)C2)cc1 (configuration not stated) | -0.269% (inactive)
Cc1ccc(S(=O)(=O)N2CCOCC2)cc1C(=O)NC1CCCC1 | -0.154% (inactive)
C[C@@H]1CN([C@@H](C)CO)C(=O)c2cc(C3=CCCCC3)cnc2O[C@H]1CN(C)C(=O)NC1CCCC1 | -0.267% (inactive)
C[C@@H]1CN([C@@H](C)CO)C(=O)c2cc(NC(=O)Nc3ccc(C(F)(F)F)cc3)ccc2O[C@@H]1CN(C)Cc1ccc(Oc2ccccc2)cc1 | -0.275% (inactive)
C[C@H](CO)N1C[C@H](C)[C@H](CN(C)Cc2ccc(C(=O)Nc3ccccc3N)cc2)Oc2ccc(NS(=O)(=O)c3cccs3)cc2CC1=O | 6.58% (inactive)
COc1ccc(NC(=O)Nc2cccc3c2O[C@@H](CN(C)C(=O)NC2CCCCC2)[C@@H](C)CN([C@H](C)CO)C3=O)cc1 | 0.334% (inactive)
C[C@H](CO)N1C[C@H](C)[C@H](CN(C)Cc2ccc3c(c2)OCO3)Oc2ccc(NC(=O)Cn3cnnn3)cc2C1=O | 2.56% (inactive)
Cn1nc(C(=O)NNC(=O)c2ccccc2Br)c2ccccc2c1=O | -0.008% (inactive)
C[C@H](CO)N1C[C@H](C)[C@@H](CN(C)S(C)(=O)=O)Oc2ccc(NC(=O)C3CCCCC3)cc2CC1=O | 0.112% (inactive)

Same assay, conditions: HUVEC E-selectin immunostaining, at 21 µM (top of the series), percent of TNF-alpha response over vehicle

SMILES | activation
C[C@H](CO)N1C[C@H](C)[C@@H](CN(C)S(=O)(=O)c2cccs2)Oc2ccc(NC(=O)CCN3CCOCC3)cc2C1=O | -0.167% (inactive)
C[C@H](CO)N1C[C@H](C)[C@H](CN(C)S(=O)(=O)c2ccc(Cl)cc2)Oc2ccc(NS(=O)(=O)c3ccc(F)cc3)cc2CC1=O | -0.115% (inactive)
C[C@H]1CN([C@@H](C)CO)C(=O)c2cccc(NC(=O)c3ccc(-c4nccs4)cc3)c2O[C@H]1CN(C)Cc1ccc(Oc2ccccc2)cc1 | 0.436% (inactive)
C[C@H](CO)N1C[C@H](C)[C@H](CN(C)S(C)(=O)=O)Oc2ccc(NC(=O)C3CCCCC3)cc2C1=O | -0.059% (inactive)
Cc1noc(C)c1NC(=O)N(C)C[C@@H]1Oc2ccc(NC(=O)c3ccncc3)cc2C(=O)N([C@H](C)CO)C[C@@H]1C | 0.043% (inactive)
COc1ccc(CN(C)C[C@H]2Oc3ccc(NC(=O)CCCN(C)C)cc3C(=O)N([C@H](C)CO)C[C@H]2C)cc1 | -0.188% (inactive)
